In patent US20030121069A1, “Disruption of the phosphodiesterase 10 gene” (Pfizer Inc., priority 2001, published 2003):
Like-named read-outs stand apart in the source and are kept apart here.

Assays:
[1] = test system: PDE10A+/+ and −/− mice; assay: Conditioned avoidance responding in PDE10A+/+ and −/− mice; settings: for ED50: Mus musculus
Source text: In the conditioned avoidance paradigm, animals are trained to move from a dark chamber in a shuttle box to a lighted chamber upon presentation of a conditioned stimulus in order to avoid a foot shock.
The conditioned avoidance shuttle chambers consist of individual Plexiglas behavior chambers (Coulbourn Instruments); each chamber divided by a guillotine door into two sides enclosed in sound attenuating cabinets. The Plexiglas chambers are fitted with metal grid floors, which are equipped with scrambled/constant current shockers. Mice are trained to avoid the onset of footshock (0.6 miliampere) by moving to the opposite side of the chamber upon activation of house lights, que lights, and the opening of the guillotine door, all of which occur 5 seconds prior to the foot shock. A computer program is used to record the number of successful avoidance responses (animals cross before onset of shock), as well as the number of escapes (where animals receive the foot shock and then cross), escape failures (where animals receive the foot shock yet still fail to cross), and the latencies to avoid (max 5 sec.) or escape (max.10 sec.) Thirty trials are completed per daily session, and inter-trial intervals are 15 seconds with the guillotine door closed. […] Vehicle treatment is performed one day every week and statistical analysis is done comparing each drug treatment on separate days vs. the vehicle treatment that week. Testing is performed during the lights on period of the light/dark cycle, typically between 8 am and 11 am. The data is analyzed using a paired t-test.

[2] = test system: PDE10A; assay: cGMP level in striatal and cortical extracts of PDE10A+/+ and −/− mice after Papaverine (enzyme immunoassay); assay type: in vivo; settings: PDE10A −/− mice, 32 mg/kg intraperitoneally, 15 minutes, vs vehicle
Method: (§1) Fifteen minutes afterwards, mice were euthanized by focused-beam microwave irradiation of the head (2 second exposure in a Litton Systems 70/50 microwave, model BN-K2, General Medical Engineering Corp., Peabody, Mass.) to prevent enzymatic degradation of cyclic nucleotides. Striatal and cortical regions were isolated and stored at −80° C. until analysis. Samples were homogenized in 0.5 N HCl and then centrifuged at 20,000×g for 30 minutes. The cGMP concentrations in the supernatants were determined using enzyme immunoassay kits (Cayman Chemical, Ann Arbor, Mich., USA) according to the manufacturer's instructions.

[3] = molecular target: T1, PDE10A (Mus musculus, UniProt Q8CA95); assay: as above; assay type: in vivo; settings: PDE10A+/+ mice, 32 mg/kg intraperitoneally, 15 minutes, vs vehicle
T1 construct: from tissue; host or cells: mouse brain in vivo (striatum and cortex); DBA/1LacJ-derived PDE10A +/+ and −/− mice
T1 sequence (Q8CA95 1-779 isoform Q8CA95-2): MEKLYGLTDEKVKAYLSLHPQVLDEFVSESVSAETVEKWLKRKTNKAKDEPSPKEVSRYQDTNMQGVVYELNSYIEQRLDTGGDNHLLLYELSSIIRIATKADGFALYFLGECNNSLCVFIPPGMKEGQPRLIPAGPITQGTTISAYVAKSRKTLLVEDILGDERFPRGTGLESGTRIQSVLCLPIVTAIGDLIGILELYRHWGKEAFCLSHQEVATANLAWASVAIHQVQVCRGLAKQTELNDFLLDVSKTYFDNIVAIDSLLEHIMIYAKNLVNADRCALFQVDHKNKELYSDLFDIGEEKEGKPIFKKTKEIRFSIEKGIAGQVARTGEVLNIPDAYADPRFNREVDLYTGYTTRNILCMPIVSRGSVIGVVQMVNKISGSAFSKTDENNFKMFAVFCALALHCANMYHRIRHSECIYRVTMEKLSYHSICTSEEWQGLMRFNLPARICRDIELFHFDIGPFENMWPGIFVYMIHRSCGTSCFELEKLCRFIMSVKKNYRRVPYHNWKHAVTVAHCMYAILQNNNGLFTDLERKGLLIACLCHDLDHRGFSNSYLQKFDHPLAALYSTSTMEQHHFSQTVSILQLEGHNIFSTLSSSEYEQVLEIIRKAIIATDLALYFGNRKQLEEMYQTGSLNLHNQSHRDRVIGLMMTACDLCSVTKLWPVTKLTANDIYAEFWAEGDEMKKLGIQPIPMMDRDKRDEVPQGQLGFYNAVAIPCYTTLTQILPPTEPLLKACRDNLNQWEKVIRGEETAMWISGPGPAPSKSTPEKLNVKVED
Method: as §1

[4] = test system: PDE10A; settings: cited from earlier work
[5] = read-out: ED50, inhibition of conditioned avoidance responding, PDE10A+/+ mice

| Compound | ED50 ([1]; read-out: ED50, inhibition of conditioned avoidance responding, PDE10A −/− mice) | ED50 [1, 5] | inhibition of conditioned avoidance responding ([1]; PDE10A −/− mice, doses up to 56 mg/kg) | effect on escape failures ([1]; PDE10A+/+ mice, highest dose tested (56 mg/kg)) | striatal cGMP level [2] | cGMP level from striatal extracts [3] | cGMP level in cortical extracts [3] | Vmax for cGMP over cAMP [4] | Km ([4]; read-out: Km (affinity of PDE10A for substrate)) |
| --- | --- | --- | --- | --- | --- | --- | --- | --- | --- |
| O=C(CCCN1CCC(O)(c2ccc(Cl)cc2)CC1)c1ccc(F)cc1 [Haloperidol] | 0.29 mg/kg | 0.21 mg/kg | – | – | – | – | – | – | – |
| COc1ccc(Cc2nccc3cc(OC)c(OC)cc23)cc1OC [Papaverine] | – | 20.7 mg/kg | failed to inhibit | no effect | only a slight increase | more than two fold elevation | no effect | – | – |
| Nc1nc2c(ncn2[C@@H]2O[C@@H]3COP(=O)(O)O[C@H]3[C@H]2O)c(=O)[nH]1 [cGMP, cyclic guanine 3′5′-monophosphate] | – | – | – | – | – | – | – | approximately 5 fold | 3 µM |
